The target of this assay is ALCAT1 (Homo sapiens (Human), UniProt Q6UWP7). Description: In vitro acyltransferase assay for ALCAT1 inhibitors. Type of assay: biochemical. Conditions: for % inh @ 1 μM / inhibition at 1 µM: 1 μM compound; for % inh @ 1 μM / inhibition at 1 µM / % inh @ 10 μM / inhibition at 10 µM: in vitro enzymatic assay; for % inh @ 10 μM / inhibition at 10 µM: 10 μM compound; for IC50: ALCAT1 enzyme activity, triplicates, GraphPad, read-out: IC50. An excerpt: The human ALCAT1 protein were expressed in Spodoptera frugiperda (Sf9) insect cells by using a Bac-to-Bac baculovirus expression system (Invitrogen) according to the manufacturer's instruction. High-titer recombinant baculovirus expressing the human ALCAT1 protein was generated by several rounds of viral amplification. The Sf9 cells were typically infected with recombinant baculovirus for 3 days, harvested in ice-cold phosphate-buffered saline (PBS), and homogenized in 20 mm NaCl by going through French press. The total cell lysates were centrifuged at 10,000×g for 1 hours at 4° C. to eliminate the nucleus fraction, followed by ultracentrifugation at 100,000×g to pallet the membrane fraction. The membrane fraction was resuspended in enzymatic buffer that contain 10% glycerol, quantified for protein concentration, aliquoted, and stored at −80° C.
Chain of ALCAT1 (Q6UWP7 whole entry): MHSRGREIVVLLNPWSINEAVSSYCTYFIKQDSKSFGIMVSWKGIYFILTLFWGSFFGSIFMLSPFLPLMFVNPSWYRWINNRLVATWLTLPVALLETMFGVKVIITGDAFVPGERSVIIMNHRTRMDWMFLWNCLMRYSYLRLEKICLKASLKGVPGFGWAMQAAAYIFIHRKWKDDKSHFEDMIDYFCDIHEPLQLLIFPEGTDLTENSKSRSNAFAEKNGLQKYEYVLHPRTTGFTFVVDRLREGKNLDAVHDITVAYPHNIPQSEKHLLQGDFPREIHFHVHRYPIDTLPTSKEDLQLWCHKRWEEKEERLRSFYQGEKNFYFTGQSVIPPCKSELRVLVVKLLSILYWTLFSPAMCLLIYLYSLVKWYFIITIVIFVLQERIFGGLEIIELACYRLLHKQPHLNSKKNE
ALCAT1 enzymatic activity was determined by measuring the conversion of monolysocardiolipin (MLCL) to cardiolipin or lysophosphatidylglycerol (LPG) to phosphatidylglycerol (PG) in an enzymatic reaction mixture that contained 50 mm Tris/HCl, pH 7.0, 100 μm lysophospholipids, 25 μm [^14C]acyl-CoA (50 mCi/mmol, American Radiolabeled Chemicals, Inc), and membrane fraction (0.5-2.5 μg) in a total volume of 200 μl. The reaction was incubated at room temperature for 30 min. The lipids were extracted will chloroform, dried, and separated by thin layer chromatography (TLC) with chloroform:hexane:methanol:acetic acid (50:30:10:5, v/v) or chloroform:methanol:water (65:25:4, v/v). After separation, TLC plates were exposed to a Phosphorlmager screen to visualize the radiolabeled products with a Molecular Dynamics Typhoon Scanner (Sunnyvale, Calif.). In some experiments, NBD-CoA was used at 100 μM to replace the [^14C]acyl-CoA in the enzymatic reaction. All quantitative data were expressed as mean±S.E. Statistical analyses for differences between two groups were carried out using a Student's t test.
Compound inhibitors for ALCAT1 enzyme were analyzed by an in vitro enzymatic assay as detailed above. Compound inhibitors were added to the enzymatic mixture at 1-20 μM concentrations before the start of the acyltransferase reaction.
Where multiple measurements were taken this is indicated by a “/” between multiple values.
IC50 values for each compound were analyzed in triplicates, and calculated by GraphPad software.

These results are taken from patent publication US11208404B2 (PERENNA PHARMACEUTICALS, INC., priority 2017, dated 2021).

“And” between values parts separate entries of the source, which are not always exact repeats. Equal entries are not always repeated.

The inhibition is the change of the read-out against control, counted positive when it falls. Lower therefore signals a response near the control. The term IC50 denotes the concentration at which inhibition is half-maximal. `O=C(Nc1cccc(-c2nnc(-c3ccco3)o2)c1)c1ccccc1F` [Compound 1]: the “% inh @ 1 μM” value was 63%; the inhibition at 1 µM was found to be 59%; the “% inh @ 10 μM” value was 48% and 49% and 79%; the IC50 was found to be 0.21 µM. Consider `O=C(Nc1cccc(-c2nnc(-c3ccco3)o2)c1)c1ccccc1Br` [Compound 5], for which the inhibition at 10 µM worked out at 39% and the IC50 worked out at 4.1 µM. Take `O=C(Nc1cccc(-c2nnc(-c3ccco3)o2)c1)c1ccccc1C(F)(F)F` [Compound 7]: the inhibition at 10 µM stood at 3%. Molecule `O=C(Nc1cccc(-c2nnc(-c3ccco3)o2)c1)c1ccccc1C(F)F` [Compound 9] displayed an inhibition at 1 µM of 47% and an inhibition at 10 µM of 87%. `O=C(Nc1cccc(-c2nnc(-c3ccco3)o2)c1)c1ccc(C(F)F)cc1` [Compound 10] gave an inhibition at 10 µM of 2%. Molecule `O=C(O)c1ccccc1C(=O)Nc1cccc(-c2nnc(-c3ccco3)o2)c1` [Compound 11] displayed an inhibition at 10 µM of 9%. As for `O=C(Nc1cccc(-c2nnc(-c3cccs3)o2)c1)c1ccccc1F` [Compound 15, 2-fluoro-N-(3-(5-(thiophen-2-yl)-1,3,4-oxadiazol-2-yl)phenyl)benzamide], the inhibition at 1 µM came to 20%.

Regarding `O=C(Nc1cccc(-c2nnc(-c3ccc[nH]3)o2)c1)c1ccccc1F` [Compound 16], the “% inh @ 1 μM” value was 58% and 85%. As to `O=C(Nc1cccc(-c2nnc(-c3ccc(Br)o3)o2)c1)c1ccccc1F` [Compound 18], the inhibition at 10 µM was found to be 2%. In the case of `Cc1ccc(-c2nnc(-c3cccc(NC(=O)c4ccccc4F)c3)o2)o1` [Compound 19], testing at 10 µM gave an inhibition of 2%. With `O=C(Nc1cccc(-c2nnc(-c3ccoc3)o2)c1)c1ccccc1F` [Compound 20, 2-fluoro-N-(3-(5-(furan-3-yl)-1,3,4-oxadiazol-2-yl)phenyl)benzamide], the inhibition at 1 µM was found to be 13%. Turning to `O=C(Nc1cccc(-c2nnc(-c3ccsc3)o2)c1)c1ccccc1F` [Compound 21], the inhibition at 10 µM is 85%. `O=C(Nc1cccc(-c2nnc(C3CCCO3)o2)c1)c1ccccc1F` (centres unmarked) [Compound 22, 2-fluoro-N-(3-(5-(tetrahydrofuran-2-yl)-1,3,4-oxadiazol-2-yl)phenyl)benzamide] came in with an inhibition at 1 µM of 20% and an inhibition at 10 µM of 8%.

Consider `O=C(Nc1cc(-c2nnc(-c3ccco3)o2)ccc1Cl)c1ccccc1F` [Compound 23], for which the inhibition at 10 µM is 89% and the IC50 turned out to be 1.8 µM.

For `O=C(Nc1ccc(Cl)c(-c2nnc(-c3ccco3)o2)c1)c1ccccc1F` [Compound 24], the inhibition at 10 µM came out at 2%. The molecule `O=C(Nc1cc(-c2nnc(-c3ccco3)o2)ccc1Br)c1ccccc1F` [Compound 25] yielded an inhibition at 10 µM of 56%.

On to `O=C(Nc1cc(-c2nnc(-c3ccco3)o2)ccc1F)c1ccccc1F` [Compound 27], for which the inhibition at 10 µM was found to be 98% and the IC50 is 0.047 µM. Molecule `O=C(Nc1ccc(F)c(-c2nnc(-c3ccco3)o2)c1)c1ccccc1F` [Compound 28] gave an inhibition at 10 µM of 51%.

In the case of `O=C(Nc1ccc(-c2nnc(-c3ccco3)o2)cc1)c1ccccc1F` [Compound 35, 2-fluoro-N-(4-(5-(furan-2-yl)-1,3,4-oxadiazol-2-yl)phenyl)benzamide], the inhibition at 1 µM was 16% and at 10 µM the inhibition was 5%. In the case of `N#Cc1ccc(C(=O)Nc2cccc(-c3nnc(-c4ccco4)o3)c2)cc1` [Compound 36], the inhibition at 10 µM turned out to be 1%. On to `O=C(Nc1cccc(-c2nnc(-c3ccco3)o2)c1)c1cccnc1F` [Compound 37], for which the “% inh @ 10 μM” value turned out to be 87%, at 10 µM the inhibition was 76% and the IC50 is 3.9 µM.

In the case of `O=C(Nc1cc(-c2nnc(-c3ccco3)o2)ccn1)c1ccccc1F` [Compound 39, 2-Fluoro-N-(4-(5-(furan-2-yl)-1,3,4-oxadiazol-2-yl)pyridin-2-yl)benzamide], at 1 µM the inhibition was 92% and the IC50 was determined as 0.093 µM. Consider `O=C(Nc1cccc(-c2cnc(-c3ccco3)o2)c1)c1ccccc1F` [Compound 40], for which the half-maximal inhibitory concentration (IC50) amounted to 1.7 µM. For the molecule `O=C(Nc1cccc(-c2nnc(-c3ccno3)o2)c1)c1ccccc1F` [Compound 42], the inhibition at 1 µM amounted to 23% and the inhibition at 10 µM was found to be 70%.

Turning to `O=C(Nc1ccccc1F)c1cccc(-c2nnc(-c3ccco3)o2)c1` [Compound 44, N-(2-fluorophenyl)-3-(5-(furan-2-yl)-1,3,4-oxadiazol-2-yl)benzamide], the inhibition at 1 µM turned out to be 26% and the IC50 is 0.99 µM.

With `O=C(Nc1cccc(-c2nnc(-c3ccco3)o2)c1)c1ccccc1` [Compound 46], the “% inh @ 10 μM” value was 43% and 68% and 75%; the IC50 was 3.8 µM. Regarding `O=C(Nc1cccc(-c2nnc(-c3ccco3)o2)c1)c1ccc(-c2ccccc2)cc1` [Compound 48], the “% inh @ 10 μM” value is 2%. Consider `O=C(Nc1cncc(-c2nnc(-c3ccco3)o2)c1)c1ccccc1F` [Compound 51], for which the “% inh @ 1 μM” value came to 57% and the inhibition at 1 µM turned out to be 43%. As for `O=C(Nc1ccnc(-c2nnc(-c3ccco3)o2)c1)c1ccccc1F` [Compound 52], 1 µM produced 59% inhibition and the IC50 was determined as 0.75 µM. `O=C(Nc1cccc(-c2nnc(-c3ccco3)o2)n1)c1ccccc1F` [Compound 53] came in with an inhibition at 1 µM of 47% and an inhibition at 10 µM of 90%. On to `COc1ccccc1C(=O)Nc1cccc(-c2nnc(-c3ccco3)o2)c1` [Compound 55], for which at 1 µM the inhibition was 81%, the inhibition at 10 µM amounted to 100% and the IC50 was 0.13 µM. As for `N#Cc1ccccc1C(=O)Nc1cccc(-c2nnc(-c3ccco3)o2)c1` [Compound 56], at 10 µM the inhibition was 2%. As to `Cc1cccc(C(=O)Nc2cccc(-c3nnc(-c4ccco4)o3)c2)c1` [Compound 57], the “% inh @ 10 μM” value is 89% and 94%; the inhibition at 10 µM was determined as 75%; the IC50 came to 2.8 µM. Turning to `COc1cccc(C(=O)Nc2cccc(-c3nnc(-c4ccco4)o3)c2)c1` [Compound 58], the inhibition at 10 µM is 45% and the IC50 is 2.4 µM.

For `O=C(Nc1cccc(-c2nnc(-c3ccco3)o2)c1)c1cccc(Cl)c1` [Compound 59], the IC50 stood at 2 µM. In turn, `O=C(Nc1cccc(-c2nnc(-c3ccco3)o2)c1)c1cccc(O)c1` [Compound 62] returned an inhibition at 1 µM of 2% and an inhibition at 10 µM of 11%. In the same order, the values of `O=C(Nc1cccc(-c2nnc(-c3ccco3)o2)c1)c1ccccc1O` [Compound 64] are 15% and 55%. As for `O=C(Nc1cccc(-c2nnc(-c3ccco3)o2)c1)c1cccc(OCc2ccccc2)c1` [Compound 71], the inhibition at 1 µM turned out to be 51% and at 10 µM the inhibition was 93%. Take `O=C(Nc1cccc(-c2nnc(-c3ccco3)o2)c1)c1ccc(Br)cc1F` [Compound 73]: 1 µM produced 15% inhibition and the inhibition at 10 µM was 66%. In the same order, the values of `O=C(Nc1cccc(-c2nnc(-c3ccco3)o2)c1)c1ccc(-c2ccccc2)cc1F` [Compound 74] are 4% and 21%. In the same order, the values of `COC(=O)c1ccccc1C(=O)Nc1cccc(-c2nnc(-c3ccco3)o2)c1` [Compound 75] are 16% and 36%. `Nc1ccccc1C(=O)Nc1cccc(-c2nnc(-c3ccco3)o2)c1` [Compound 77] gave an inhibition at 1 µM of 37% and an inhibition at 10 µM of 21%. On to `Cc1c(NC(=O)c2ccccc2F)cccc1-c1nnc(-c2ccco2)o1` [Compound 78], for which the “% inh @ 1 μM” value worked out at 59% and the inhibition at 1 µM stood at 42%. For the molecule `O=C(Nc1cccc(-c2nnc(-c3ccco3)o2)c1F)c1ccccc1F` [Compound 79, 2-fluoro-N-(2-fluoro-3-(5-(furan-2-yl)-1,3,4-oxadiazol-2-yl)phenyl)benzamide], testing at 1 µM gave an inhibition of 89% and the IC50 came out at 0.11 µM. `O=C(Nc1cc(-c2nnc(-c3ccc(Cl)o3)o2)c(F)cc1F)c1ccccc1F` [Compound 80] had an inhibition at 1 µM of 22%.

On to `Cc1ccc(NC(=O)c2ccccc2F)cc1-c1nnc(-c2ccco2)o1` [Compound 81], for which the “% inh @ 1 μM” value worked out at 36% and 1 µM produced 20% inhibition. As for `O=C(Nc1cccc(-c2nnc(-c3ccc(Cl)o3)o2)n1)c1ccccc1F` [Compound 82], the inhibition at 1 µM was determined as 23% and the inhibition at 10 µM came to 3%. In turn, `O=C(Nc1cccc(-c2nnc(-c3ccco3)o2)c1)c1ccccc1I` [Compound 83] yielded an inhibition at 1 µM of 36% and an inhibition at 10 µM of 43%.
